Tested on: Gram-positive strains
Assay: Whole-cell antibacterial MIC assay (NCCLS serial dilution), Gram-positive strains
Format: cell-based
Details: each of the Gram-positive strains examined, including strains with resistance to tetracycline, methicillin, and vancomycin
Procedure: The efficiencies of the synthetic sequences have allowed for the preparation of sufficient quantities of each tetracycline analog for antibacterial testing using standard serial-dilution techniques (5-20 mg amounts). Minimum inhibitory concentrations (MICs) are reported for each analog in whole-cell antimicrobial assays using five Gram-positive and five Gram-negative organisms (FIGS. 18A to 18C).
Whole-cell antibacterial activity was determined according to methods recommended by the NCCLS (National Committee for Clinical Laboratory Standards. 2002. Methods for dilution antimicrobial susceptibility tests for bacteria that grow aerobically: approved standard-fifth edition. NCCLS document M100-S12. National Committee for Clinical Laboratory Standards. Wayne, Pa.; incorporated herein by reference). Test compounds were dissolved in dimethyl sulfoxide (DMSO) and the resulting solutions were diluted in water (1:10) to produce stock solutions with a final concentration of 256 μg tetracycline analog per mL. In a 96-well microtiter plate, 50-μL aliquots of stock solutions were diluted serially into cation-adjusted Mueller-Hinton broth (MHB; Becton-Dickinson, Cockeysville, Md.). Test organisms (50 μL aliquots of solutions […]) were then added to the appropriate wells of the microtiter plate. […] The MIC was the lowest concentration of compound determined to inhibit visible growth. […]

## CN(C)[C@@H]1C(O)=C(C(N)=O)C(=O)[C@@]2(O)C(O)=C3C(=O)c4c(cc5ccccc5c4O)C[C@H]3C[C@@H]12 [pentacycline derivative 6]
  antibacterial activity compared with tetracycline: activity equal to or greater than tetracycline

— patent publication US11192866B2, “Synthesis of tetracyclines and analogues thereof” (President and Fellows of Harvard College, priority 2004, dated 2021)
